# Assay results from US4338314A, “[1,2]Anellated-7-phenyl-1,4-benzodiazepine and pharmaceutical compositions thereof and use for treatment of ulcers” (Kali-Chemie Pharma GmbH, priority 1978, dated 1982).
# Legend:
# [1] = Acute 7-day toxicity after a single application per os (LD50); conditions: mouse, in vivo; single oral dose, unfed white NMRI mice, 7 days
# Procedure: The acute 7-day toxicity is determined after a single application per os in white NMRI mice which have not been fed. The calculation of the LD50 is carried out by probitananalysis by means of electronic data processing (see L. Cavalli-Sforza, Gustav-Fischer-Verlag, Stuttgart (1964), Grundbegriffe der Biometrie, Chapter 10, pages 153-190).
# muscle tone = assay: Testing of musculatropic properties (traction test); assay type: in vivo; conditions: Mus musculus, 2 h; oral, mice, after 120 minutes; half of animals do not touch wire with hind legs within 5 seconds
# Procedure: 3. Testing of Musculatropic Properties:
# In a traction test, mice are administered the test substance orally. After 120 minutes the mice are attached at the front paws to a horizontally suspended wire. The ED50 is the dose which causes exactly half of the animals not to touch the wire also with their hind legs within a period of 5 seconds, (W. Theobald et al, Arneim. Forschung 17, (1967), page 561). This test measures the influence of the test substance on the muscle tone of the test subject.
# [2] = tested on: central nervous system (hexobarbital sleep time); assay: Central nervous depressant properties (prolonging the hexobarbital sleep time); assay type: in vivo; conditions: Mus musculus, 0.5 h; oral, mice, 30 minutes before 64 mg/kg hexobarbital; half of animals extend sleep by factor of 4; read-out: Prolonging hexobarbitol sleep time (ED50)
# Procedure: 4. Testing of Central Nervous Depressant Properties (Prolonging the Hexobarbital sleep time):
# The test substance is administered orally to mice. After 30 minutes, the animals are additionally injected with hexabarbitol in an amount of 64 mg/kg. The time point of the onset of sleeping posture is determined and the duration of sleeping posture is compared with a control group treated exclusively with hexobarbitol. The dose, with which half of the animals extend the time of sleeping posture by a factor of 4 over that of the control group, is defined as ED50. (J. W. Kemp. M. Tannhauser and E. A. Swingard, Arch. Int. Pharmacodyn. 193(1971), pp 34-47).
# [3] = tested on: indomethacine-induced ulcers; assay: Effectiveness against indomethacine-induced ulcers in rats; assay type: in vivo, rats (male); conditions: Rattus norvegicus, 1 h before 40 mg/kg indomethacine, 24 h, read-out: Ulcer induced by indomethacine, % inhibited; for inhibition in vivo at 100 mg/kg: 100 mg/kg oral; for inhibition in vivo at 200 mg/kg: 200 mg/kg oral
# Procedure: 2. Effectiveness Against Indomethacine-Induced Ulcers in Rats Modified Test Procedure According to U. Jahn and R. W. Adrian, Arzneimittel Forschung, (Drug Research) 19, (1969), p. 36.:
# The animals of the blank control group receive the corresponding amount by volume of the suspension medium only. One hour after the application of the test compouns, a dosage of 40 mg/kg of indomethacine contained in an amount of 0.5 ml of a suspension per 100 g animal weight are orally applied to each animal for producing ulcers. Twenty-four hours after the application of the indomethacine the animals are sacrificed.
# central nervous system = assay: Central nervous / psychopharmacological activity, side effects and toxicity, general statement
SMILES,LD50 at 168 h [1] [mg/kg],ED50 (muscle tone) [mg/kg],ED50 [2] [mg/kg],inhibition in vivo at 150 mg/kg ([3]; 150 mg/kg oral) [%],inhibition in vivo at 100 mg/kg [3] [%],inhibition in vivo at 200 mg/kg [3] [%],inhibition in vivo at 250 mg/kg ([3]; 250 mg/kg oral) [%],"inhibition in vivo at 12 mg/kg ([3]; 12 mg/kg oral, higher doses not tolerable) [%]",psychopharmacological effect (central nervous system; already with small doses),tolerability of higher doses sufficient to achieve an improved ulcer inhibiting effect (central nervous system; higher doses)
Clc1ccc2c(c1)C(c1ccccc1)=NCC1COCCN21 (stereo not shown) [A],2260,285,31.6,61,,,,,,
Fc1ccc2c(c1)C(c1ccccc1)=NCC1COCCN21 (stereo not shown) [B],> 1370,> 296,80.3,,77,,,,,
Cc1ccc2c(c1)C(c1ccccc1)=NCC1COCCN21 (stereo not shown) [C],> 1430,> 316,139,,,68,,,,
Cc1ccc2c(c1)N1CCOCC1CN=C2c1ccccc1 (stereo not shown) [D],> 1470,> 316,138,,70,,,,,
Clc1ccc2c(c1)C(c1ccccc1Cl)=NCC1COCCN21 (stereo not shown) [E],> 1470,> 316,11.8,,86,,,,,
COc1ccc2c(c1)N1CCOCC1CN=C2c1ccccc1 (stereo not shown) [F],> 1430,> 308,202,,42,,,,,
Cc1cc2c(cc1Cl)N1CCOCC1CN=C2c1ccccc1 (stereo not shown) [G],> 1520,> 327,119,,,77,,,,
Clc1ccc2c(c1)C(c1ccccc1)=NCC1CSCCN21 (stereo not shown) [H],> 1470,316,153,,74,,,,,
C=CCN1CCN2c3ccc(Cl)cc3C(c3ccccc3)=NCC2C1 (stereo not shown) [I],1090,> 316,100,,,81,,,,
Clc1ccc2c(c1)C(c1ccccc1)=NCC1CN(CCc3ccccc3)CCN21 (stereo not shown) [K],> 1310,> 284,110,,,85,,,,
Cc1ccc2c(c1)C(c1ccccc1)=NCC1CN(C)CCN21 (stereo not shown) [L],> 1010,> 215,164,,,,70,,,
CN1C(=O)CN=C(c2ccccc2)c2cc(Cl)ccc21 [S],,4.2,1.5,,,,,28,,
"CN1C(=O)CN=C(c2ccccc2)c2cc(Cl)ccc21 [Substance S, 7-chloro-1-methyl-5-phenyl-1,3-dihydro-2H-1,4-benzodiazepin-2-one]",,,,,,,,,strong,not tolerable
